Results on eight compounds are retold here after ChEMBL document CHEMBL1132758, “Synthesis and estrogenic activities of novel 7-thiosubstituted estratriene derivatives” (Bioorg Med Chem Lett, 2000).

The target of experiment [1] is T1, Estrogen receptor (Homo sapiens, UniProt P03372).
T1 sequence (P03372 whole entry): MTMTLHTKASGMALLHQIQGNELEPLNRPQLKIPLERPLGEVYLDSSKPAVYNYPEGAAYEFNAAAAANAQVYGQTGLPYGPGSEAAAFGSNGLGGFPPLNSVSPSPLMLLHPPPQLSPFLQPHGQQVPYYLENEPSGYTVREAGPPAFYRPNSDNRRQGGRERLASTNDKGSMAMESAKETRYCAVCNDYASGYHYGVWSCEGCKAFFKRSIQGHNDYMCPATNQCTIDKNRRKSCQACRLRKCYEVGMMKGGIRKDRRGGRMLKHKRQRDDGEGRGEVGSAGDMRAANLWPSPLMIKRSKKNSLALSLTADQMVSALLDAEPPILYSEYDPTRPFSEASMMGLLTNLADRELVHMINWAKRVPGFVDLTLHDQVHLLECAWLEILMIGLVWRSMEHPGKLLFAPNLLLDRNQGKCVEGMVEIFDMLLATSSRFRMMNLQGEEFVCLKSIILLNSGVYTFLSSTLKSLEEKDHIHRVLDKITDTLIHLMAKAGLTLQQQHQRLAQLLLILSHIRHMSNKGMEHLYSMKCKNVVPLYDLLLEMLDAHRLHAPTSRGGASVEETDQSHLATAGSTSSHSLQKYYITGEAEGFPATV
Description: Agonist effect on transcriptional activation in MCF-7 cells expressing estrogen receptor alpha

In experiment [2] the target is T2, Estrogen receptor beta (Homo sapiens, UniProt Q92731).
Experiment [3] addresses T1, Estrogen receptor. This is another data set of the same source.
Description: Antagonist effect on transcriptional activation in MCF-7 cells expressing estrogen receptor alpha
Experiment [4] deals with T1, Estrogen receptor. This is another data set of the same source.
Experiment [5] concerns the target T1, Estrogen receptor. Conditions: mcf7.
Experiment [6] has as its target T1, Estrogen receptor. To be noted: mcf7. This is another data set of the same source.
Experiment [7] deals with T2, Estrogen receptor beta. Nature of the experiment: Displacement of [3H]17-beta-estradiol from human Estrogen receptor beta; Not active means no effect at < 1000 nM. (In general: Loss of bound radioactivity is the signal in a displacement assay; it reports binding, not function.)

For orientation: EC50 means the concentration needed to bring the measured effect to its halfway point. Low readings indicate higher potency in that assay, high ones lower potency in that assay. As usually defined, the IC50 is the point on the concentration scale where inhibition reaches its midpoint. Read a high IC50 as weaker potency.

T2 sequence (Q92731 whole entry): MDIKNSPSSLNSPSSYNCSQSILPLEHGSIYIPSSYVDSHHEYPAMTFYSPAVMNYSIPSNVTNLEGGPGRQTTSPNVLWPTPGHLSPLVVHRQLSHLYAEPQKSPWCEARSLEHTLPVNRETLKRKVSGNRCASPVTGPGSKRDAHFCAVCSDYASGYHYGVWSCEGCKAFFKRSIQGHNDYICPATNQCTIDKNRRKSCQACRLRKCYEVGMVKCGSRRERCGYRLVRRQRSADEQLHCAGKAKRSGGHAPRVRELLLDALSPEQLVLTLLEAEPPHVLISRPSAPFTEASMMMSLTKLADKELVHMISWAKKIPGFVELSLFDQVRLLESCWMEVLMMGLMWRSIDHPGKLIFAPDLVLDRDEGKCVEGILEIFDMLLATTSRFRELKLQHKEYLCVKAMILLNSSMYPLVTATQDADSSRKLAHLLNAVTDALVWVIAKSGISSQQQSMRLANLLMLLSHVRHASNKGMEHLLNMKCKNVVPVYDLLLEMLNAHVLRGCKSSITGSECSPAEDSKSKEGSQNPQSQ

Take `CCCCN(C)C(=O)CCCCCCCCCCS[C@H]1[C@@H]2[C@H](CC[C@]3(C)[C@@H](O)CC[C@@H]23)c2ccc(O)cc2[C@H]1O`: the EC50 at Estrogen receptor [1] turned out to be 40 nM. In addition, the figures for the IC50 against Estrogen receptor beta [2], against Estrogen receptor [3] and at Estrogen receptor [4] were 32 nM, 316 nM and 32 nM, respectively.

On Estrogen receptor [1], `C[C@]12CC[C@@H]3c4ccc(O)cc4C(O)[C@@H](Sc4ccc(Br)cc4)[C@H]3[C@@H]1CC[C@@H]2O` (some centres not stated) registered an EC50 of 7 nM. In addition, the IC50 was 63 nM against Estrogen receptor beta [2], “Not Active” against Estrogen receptor [5] and 397 nM at Estrogen receptor [4].

For the compound `CCCCN(C)C(=O)CCCCCCCCCCS[C@@H]1Cc2cc(O)ccc2[C@H]2CC[C@]3(C)[C@@H](O)CC[C@H]3[C@@H]21`, the concentration giving a half-maximal response (EC50) result at Estrogen receptor [6] is given as “Not Active”. Further, the 50% inhibitory concentration (IC50) was 9 nM against Estrogen receptor beta [2], 3.5 nM at Estrogen receptor [3] and 9 nM on Estrogen receptor [4].

With `CC(=O)O[C@H]1CC[C@H]2[C@@H]3[C@H](Sc4ccc(Br)cc4)C(=O)c4cc(O)ccc4[C@H]3CC[C@]12C`, the IC50 result at Estrogen receptor beta [7] and at Estrogen receptor [5] was “Not Active” in each case.

`CN(C)C(=O)/C=C/c1ccc(S[C@@H]2Cc3cc(O)ccc3[C@H]3CC[C@]4(C)[C@@H](O)CC[C@H]4[C@@H]32)cc1` had an EC50 on Estrogen receptor [1] of 173 nM. The IC50 on Estrogen receptor beta [2] was 59 nM; at Estrogen receptor [5], “Not Active”; against Estrogen receptor [4], 94 nM.

With `COc1ccc2c(c1)C[C@@H](Sc1ccc(OCCN3CCCCC3)cc1)[C@@H]1[C@@H]2CC[C@]2(C)[C@@H](O)CC[C@@H]12`, the IC50 result on Estrogen receptor beta [7] is listed as “Not Active”.

As for `C[C@]12CC[C@@H]3c4ccc(O)cc4C[C@@H](Sc4ccc(/C=C/C(=O)O)cc4)[C@H]3[C@@H]1CC[C@@H]2O`, at Estrogen receptor [1], the EC50 is 13 nM. Besides, the IC50 was 21 nM on Estrogen receptor beta [2], “Not Active” against Estrogen receptor [5] and 46 nM against Estrogen receptor [4].

Consider `CCCCN(C)C(=O)CCCCCCCCCCS[C@@H]1C(=O)c2cc(O)ccc2[C@H]2CC[C@]3(C)[C@@H](O)CC[C@H]3[C@H]12`, for which the 50% effective concentration (EC50) at Estrogen receptor [1] amounted to 28 nM. The values for the half-maximal inhibitory concentration (IC50) at Estrogen receptor beta [2], on Estrogen receptor [3] and at Estrogen receptor [4] were 37 nM, 519 nM and 33 nM, respectively.
